The structures appear in SMILES notation.

The assay deals with T1, Glucocorticoid Receptor (GR) (Homo sapiens, UniProt P04150).
T1 construct: purchased Invitrogen P2816
T1 sequence (P04150 1-777): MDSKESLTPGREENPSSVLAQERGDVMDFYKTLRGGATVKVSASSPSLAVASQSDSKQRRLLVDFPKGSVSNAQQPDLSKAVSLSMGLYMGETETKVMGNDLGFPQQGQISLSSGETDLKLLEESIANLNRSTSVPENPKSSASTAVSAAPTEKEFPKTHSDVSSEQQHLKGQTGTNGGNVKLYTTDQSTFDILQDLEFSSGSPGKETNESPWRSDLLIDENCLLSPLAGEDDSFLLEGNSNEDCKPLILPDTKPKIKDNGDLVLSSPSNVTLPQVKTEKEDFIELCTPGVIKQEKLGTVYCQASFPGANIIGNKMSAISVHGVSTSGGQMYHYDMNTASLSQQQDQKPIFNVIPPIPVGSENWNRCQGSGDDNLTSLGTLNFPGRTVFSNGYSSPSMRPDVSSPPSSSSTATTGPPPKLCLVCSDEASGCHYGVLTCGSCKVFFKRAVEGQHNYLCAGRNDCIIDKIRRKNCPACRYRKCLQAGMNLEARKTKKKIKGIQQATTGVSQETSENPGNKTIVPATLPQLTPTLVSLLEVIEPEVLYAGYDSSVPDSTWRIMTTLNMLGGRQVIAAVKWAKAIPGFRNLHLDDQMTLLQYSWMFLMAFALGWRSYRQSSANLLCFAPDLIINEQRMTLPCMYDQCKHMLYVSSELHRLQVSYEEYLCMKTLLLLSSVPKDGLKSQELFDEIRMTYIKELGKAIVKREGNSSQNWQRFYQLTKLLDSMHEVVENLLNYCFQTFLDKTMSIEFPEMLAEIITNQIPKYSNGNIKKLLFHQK
In words: GR receptor competitor assay by fluorescence polarization (Invitrogen GR competitor assay kit, cat No. P2816). As to conditions: 20 μM test compound solution, 10 μL per well plus 5 μL 4×GS1 and 5 μL 4×GR solution; recombinant human GR; 2 to 4 hours at room temperature; a ratio of 100% or more is indicated by 100%; read-out: GR Binding ratio (%). The gist of the method: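 Recombinant human GR with fluorescent ligand Fluormone GS1 in pH 7.4 phosphate buffer with molybdate, EDTA, DTT, stabilizing peptide and 2% DMSO; compound added as 20 μM solution (pre-mix). FP read after 2–4 h at room temperature in the dark. Binding ratio (%) normalized between buffer and dexamethasone controls.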
A general note: In fluorescence polarisation assays a small probe gives low polarisation when free and higher when bound to something large.
For the molecule `COc1cc(OS(=O)(=O)C(C)C)ccc1-c1ccc2c(c1COc1cc(F)ccc1C)C(C)=CC(C)(C)N2` [Compound 4-13, 5-(5-Fluoro-2-methylphenoxymethyl)-6-(4-isopropylsulfonyloxy-2-methoxyphenyl)-2,2,4-trimethyl-1,2-dihydroquinoline], the inhibition at 10 µM was found to be 89%.

`CCCCS(=O)(=O)Oc1ccc(-c2ccc3c(c2COc2cc(F)ccc2C)C(C)=CC(C)(C)N3)c(OC)c1` [Compound 4-14, 6-(4-Butylsulfonyloxy-2-methoxyphenyl)-5-(5-fluoro-2-methylphenoxymethyl)-2,2,4-trimethyl-1,2-dihydroquinoline]: the inhibition at 10 µM worked out at 90%. In the case of `CCCS(=O)(=O)Oc1ccc(-c2ccc3c(c2COc2cc([N+](=O)[O-])ccc2OC)C(C)=CC(C)(C)N3)c(OC)c1` [Compound 4-18, 5-(2-Methoxy-5-nitrophenoxymethyl)-6-(2-methoxy-4-propylsulfonyloxyphenyl)-2,2,4-trimethyl-1,2-dihydroquinoline] it was 99%. In the case of `COc1ccc([N+](=O)[O-])cc1OCc1c(-c2ccc(OS(=O)(=O)C3CC3)cc2OC)ccc2c1C(C)=CC(C)(C)N2` [Compound 4-19, 6-(4-Cyclopropylsulfonyloxy-2-methoxyphenyl)-5-(2-methoxy-5-nitrophenoxymethyl)-2,2,4-trimethyl-1,2-dihydroquinoline] it was 98%; in that of `COc1ccc([N+](=O)[O-])cc1OCc1c(-c2ccc(OS(=O)(=O)C(C)C)cc2OC)ccc2c1C(C)=CC(C)(C)N2` [Compound 4-20, 6-(4-Isopropylsulfonyloxy-2-methoxyphenyl)-5-(2-methoxy-5-nitrophenoxymethyl)-2,2,4-trimethyl-1,2-dihydroquinoline], 100%; in that of `CCS(=O)(=O)Oc1ccc(-c2ccc3c(c2COc2cc([N+](=O)[O-])ccc2C)C(C)=CC(C)(C)N3)c(OC)c1` [Compound 4-23, 6-(4-Ethylsulfonyloxy-2-methoxyphenyl)-5-(2-methyl-5-nitrophenoxymethyl)-2,2,4-trimethyl-1,2-dihydroquinoline], 100%.

In the case of `CCCS(=O)(=O)Oc1ccc(-c2ccc3c(c2COc2cc([N+](=O)[O-])ccc2C)C(C)=CC(C)(C)N3)c(OC)c1` [Compound 4-25, 6-(2-Methoxy-4-propylsulfonyloxyphenyl)-5-(2-methyl-5-nitrophenoxymethyl)-2,2,4-trimethyl-1,2-dihydroquinoline], the inhibition at 10 µM is 100%. On to `COc1cc(OS(=O)(=O)C(C)C)ccc1-c1ccc2c(c1COc1cc([N+](=O)[O-])ccc1C)C(C)=CC(C)(C)N2` [Compound 4-26, 6-(4-Isopropylsulfonyloxy-2-methoxyphenyl)-5-(2-methyl-5-nitrophenoxymethyl)-2,2,4-trimethyl-1,2-dihydroquinoline], for which the inhibition at 10 µM was found to be 100%. On to `COc1cc(OS(=O)(=O)C2CC2)ccc1-c1ccc2c(c1COc1cc(F)ccc1C)C(C)=CC(C)(C)N2` [Compound 4-27, 6-(4-Cyclopropylsulfonyloxy-2-methoxyphenyl)-5-(5-fluoro-2-methylphenoxymethyl)-2,2,4-trimethyl-1,2-dihydroquinoline], for which the inhibition at 10 µM amounted to 100%. Next, `COc1cc(OS(=O)(=O)CC(C)C)ccc1-c1ccc2c(c1COc1cc(F)ccc1C)C(C)=CC(C)(C)N2` [Compound 4-28, 5-(5-Fluoro-2-methylphenoxymethyl)-6-(4-isobutylsulfonyloxy-2-methoxyphenyl)-2,2,4-trimethyl-1,2-dihydroquinoline]: 100%. Take `COc1cc(OS(=O)(=O)C2CCCC2)ccc1-c1ccc2c(c1COc1cc(F)ccc1C)C(C)=CC(C)(C)N2` [Compound 4-29, 6-(4-Cyclopentylsulfonyloxy-2-methoxyphenyl)-5-(5-fluoro-2-methylphenoxymethyl)-2,2,4-trimethyl-1,2-dihydroquinoline]: the inhibition at 10 µM was 100%. In the case of `COc1cc(OS(=O)(=O)CCC(F)(F)F)ccc1-c1ccc2c(c1COc1cc(F)ccc1C)C(C)=CC(C)(C)N2` [Compound 4-30, 5-(5-Fluoro-2-methylphenoxymethyl)-6-[2-methoxy-4-(3,3,3-trifluoroproprylsulfonyloxy)phenyl]-2,2,4-trimethyl-1,2-dihydroquinoline] it was 100%.

With `COc1ccccc1OC(=O)Oc1ccc(-c2ccc3c(c2COc2cc(F)ccc2C)C(C)=CC(C)(C)N3)c(OC)c1` [Compound 5-5, 5-(5-Fluoro-2-methylphenoxymethyl)-6-[2-methoxy-4-(2-methoxyphenoxycarbonyloxy)phenyl]-2,2,4-trimethyl-1,2-dihydroquinoline], the inhibition at 10 µM worked out at 93%. For `COc1cc(OC(=O)Nc2ccccc2Cl)ccc1-c1ccc2c(c1COc1cc(F)ccc1C)C(C)=CC(C)(C)N2` [Compound 6-3, 6-[4-(2-Chlorophenylaminocarbonyloxy)-2-methoxyphenyl]-5-(5-fluoro-2-methylphenoxymethyl)-2,2,4-trimethyl-1,2-dihydroquinoline], the inhibition at 10 µM was 98%. In the case of `COc1cccc(NC(=O)Oc2ccc(-c3ccc4c(c3COc3cc(F)ccc3C)C(C)=CC(C)(C)N4)c(OC)c2)c1` [Compound 6-12, 5-(5-Fluoro-2-methylphenoxymethyl)-6-[2-methoxy-4-(3-methoxyphenylaminocarbonyloxy)phenyl]-2,2,4-trimethyl-1,2-dihydroquinoline] it was 98%; in that of `COc1ccc(NC(=O)Oc2ccc(-c3ccc4c(c3COc3cc(F)ccc3C)C(C)=CC(C)(C)N4)c(OC)c2)cc1` [Compound 6-13, 5-(5-Fluoro-2-methylphenoxymethyl)-6-[2-methoxy-4-(4-methoxyphenylaminocarbonyloxy)phenyl]-2,2,4-trimethyl-1,2-dihydroquinoline], 100%. In the case of `COC(=O)c1ccc(NC(=O)Oc2ccc(-c3ccc4c(c3COc3cc(F)ccc3C)C(C)=CC(C)(C)N4)c(OC)c2)cc1` [Compound 6-14, 5-(5-Fluoro-2-methylphenoxymethyl)-6-[2-methoxy-4-(4-methoxycarbonylphenylaminocarbonyloxy)phenyl]-2,2,4-trimethyl-1,2-dihydroquinoline], the inhibition at 10 µM came out at 88%. In the case of `COc1cc(OC(=O)Nc2ccc(C#N)cc2)ccc1-c1ccc2c(c1COc1cc(F)ccc1C)C(C)=CC(C)(C)N2` [Compound 6-17, 6-[4-(4-Cyanophenylaminocarbonyloxy)-2-methoxyphenyl]-5-(5-fluoro-2-methylphenoxymethyl)-2,2,4-trimethyl-1,2-dihydroquinoline] it was 90%. In the case of `COc1cc(OC(=O)N2CCOCC2)ccc1-c1ccc2c(c1COc1cc(F)ccc1C)C(C)=CC(C)(C)N2` [Compound 6-18, 5-(5-Fluoro-2-methylphenoxymethyl)-6-[2-methoxy-4-(morpholin-4-ylcarbonyloxy)phenyl]-2,2,4-trimethyl-1,2-dihydroquinoline] it was 100%; in that of `COc1cc(OC(=O)NC(C)C)ccc1-c1ccc2c(c1COc1cc(F)ccc1C)C(C)=CC(C)(C)N2` [Compound 6-21, 6-(4-Isopropylaminocarbonyloxy-2-methoxyphenyl)-5-(5-fluoro-2-methylphenoxymethyl)-2,2,4-trimethyl-1,2-dihydroquinoline], 92%; in that of `COc1ccc([N+](=O)[O-])cc1OCc1c(-c2ccc(OC(=O)N3CCOCC3)cc2OC)ccc2c1C(C)=CC(C)(C)N2` [Compound 6-28, 6-[2-Methoxy-4-(morpholin-4-ylcarbonyloxy)phenyl]-5-(2-methoxy-5-nitrophenoxymethyl)-2,2,4-trimethyl-1,2-dihydroquinoline], 100%.

In the case of `COc1cc(OC(=O)N2CCOCC2)ccc1-c1ccc2c(c1COc1cc([N+](=O)[O-])ccc1C)C(C)=CC(C)(C)N2` [Compound 6-30, 6-[2-Methoxy-4-(morpholin-4-ylcarbonyloxy)phenyl]-5-(2-methyl-5-nitrophenoxymethyl)-2,2,4-trimethyl-1,2-dihydroquinoline], the inhibition at 10 µM was 100%.

(Values after patent US8440660B2 (Santen Pharmaceutical Co., Ltd., priority 2006, dated 2013).)
